Experimental data: ChEMBL document CHEMBL3085759, “Structure-activity relationship (SAR) and preliminary mode of action studies of 3-substituted benzylthioquinolinium iodide as anti-opportunistic infection agents” (Eur J Med Chem, 2013)
In brackets after ≈: the same amount, converted by molar mass. Activity calls are given as the source filed them. The rule behind the calls is not given here.

Tests used:
[1] = tested on: Mycobacterium intracellulare; assay: Antimicrobial activity against Mycobacterium intracellulare ATCC 23068 by Alamar blue method; assay type: functional, organism-based
Staphylococcus aureus [2] = assay: Antimicrobial activity against methicillin-resistant Staphylococcus aureus ATCC 33591 by Alamar blue method; assay type: functional, organism-based
Staphylococcus aureus [3] = assay: Antimicrobial activity against Staphylococcus aureus ATCC 29213 by Alamar blue method; assay type: functional, organism-based
Nakaseomyces glabratus = assay: Antimicrobial activity against Candida glabrata by Alamar blue method; assay type: functional, organism-based
Pichia kudriavzevii = assay: Antimicrobial activity against Candida krusei ATCC 6258 by Alamar blue method; assay type: functional, organism-based
Aspergillus fumigatus = assay: Antimicrobial activity against Aspergillus fumigatus ATCC 204305 by Alamar blue method; assay type: functional, organism-based
Cryptococcus neoformans = assay: Antimicrobial activity against Cryptococcus neoformans ATCC 90113 by Alamar blue method; assay type: functional, organism-based
Candida albicans = assay: Antimicrobial activity against Candida albicans ATCC 90028 by Alamar blue method; assay type: functional, organism-based
Vero = assay: Cytotoxicity against african green monkey Vero cells at 10 ug/ml after 48 hrs by Neutral Red dye assay; assay type: cell-based; details: chlorocebus sabaeus
[4] = Staphylococcus aureus, ATCC 29213
[5] = Staphylococcus aureus, ATCC 29213, read-out: IC50

Compound | IC50 [1] [µg/mL] | MBC [1] [µg/mL] | MIC [1] [µg/mL] | IC50 (Staphylococcus aureus [2]) [µg/mL] | MBC (Staphylococcus aureus [2]) [µg/mL] | MIC (Staphylococcus aureus [2]) [µg/mL] | MBC (Staphylococcus aureus [3]; [4]) [µg/mL] | MIC (Staphylococcus aureus [3]; [4]) [µg/mL] | IC50 (Staphylococcus aureus [3]; [5]) [µg/mL] | IC50 (Nakaseomyces glabratus) [µg/mL] | MFC (Nakaseomyces glabratus) [µg/mL] | MIC (Nakaseomyces glabratus) [µg/mL] | IC50 (Pichia kudriavzevii) [µg/mL] | MFC (Pichia kudriavzevii) [µg/mL] | MIC (Pichia kudriavzevii) [µg/mL] | IC50 (Aspergillus fumigatus) [µg/mL] | MIC (Aspergillus fumigatus) [µg/mL] | MIC (Cryptococcus neoformans) [µg/mL] | IC50 (Candida albicans) [µg/mL] | MIC (Candida albicans) [µg/mL] | also measured
Fc1ccc(Oc2cc3ccccc3[n+](CCCCCC3CCCCC3)c2)cc1.[I-] | 20 | 20 | 20 | 14 | > 20 | > 20 | > 20 | 20 | 14 | > 20 | > 20 | > 20 | > 20 | > 20 | > 20 | > 20 | > 20 | 10 | > 20 | > 20 | MFC (Aspergillus fumigatus): > 20 µg/mL; IC50 (Cryptococcus neoformans): 8.62 µg/mL; MFC (Cryptococcus neoformans): 10 µg/mL; MFC (Candida albicans): > 20 µg/mL
Cc1ccccc1CSc1cc2ccccc2[n+](CCCCCC2CCCCC2)c1.[I-] | 6.7 | 10 | 10 | 0.73 | 2.5 | 1.3 | 2.5 | 0.63 | 0.4 | 2.8 | 5 | 5 | 0.84 | 2.5 | 2.5 | 4.1 | 10 | 0.63 | 1.4 | 2.5 | Activity (Vero): Non-toxic; IC50 (Cryptococcus neoformans): 0.39 µg/mL
[I-].c1ccc(Oc2cc3ccccc3[n+](CCCCCC3CCCCC3)c2)cc1 | > 20 | > 20 | > 20 | > 20 | > 20 | > 20 | > 20 | > 20 | 19 | > 20 | > 20 | > 20 | > 20 | > 20 | > 20 | > 20 | > 20 | > 20 | > 20 | > 20 | MFC (Aspergillus fumigatus): > 20 µg/mL; IC50 (Cryptococcus neoformans): > 20 µg/mL; MFC (Cryptococcus neoformans): > 20 µg/mL; MFC (Candida albicans): > 20 µg/mL
Oc1ccc(CSc2cc3ccccc3[n+](CCCCCC3CCCCC3)c2)cc1.[I-] | 2.2 | 5 | 2.5 | 0.34 | 5 | 0.63 | 2.5 | 2.5 | 0.26 | 7.9 | 20 | 20 | 0.56 | 1.3 | 1.3 | 16 | 20 | 10 | 11 | 20 | Activity (Vero): Non-toxic; MFC (Aspergillus fumigatus): 20 µg/mL; MFC (Cryptococcus neoformans): 10 µg/mL; MFC (Candida albicans): 20 µg/mL
Ic1cc2ccccc2[n+](CCCCCC2CCCCC2)c1.[I-] | > 20 | > 20 | > 20 | > 20 | > 20 | > 20 | > 20 | > 20 | 18 | > 20 | > 20 | > 20 | 1.7 | 10 | 10 | > 20 | > 20 | 10 | > 20 | > 20 | MFC (Aspergillus fumigatus): > 20 µg/mL; IC50 (Cryptococcus neoformans): 5.8 µg/mL; MFC (Cryptococcus neoformans): 10 µg/mL; MFC (Candida albicans): > 20 µg/mL
COc1ccccc1CSc1cc2ccccc2[n+](CCCCCC2CCCCC2)c1.[I-] | 3 | 5 | 5 | 0.35 | 5 | 0.63 | 5 | 0.63 | 0.31 | 8.2 | 20 | 20 | 0.75 | 2.5 | 2.5 | 9.8 | 20 | 0.63 | 2.8 | 5 | Activity (Vero): Non-toxic; MFC (Aspergillus fumigatus): > 20 µg/mL; IC50 (Cryptococcus neoformans): 0.34 µg/mL; MFC (Cryptococcus neoformans): 2.5 µg/mL; MFC (Candida albicans): 5 µg/mL
Brc1cccc(CSc2cc3ccccc3[n+](CCCCCC3CCCCC3)c2)c1.[I-] | 3.2 | 5 | 5 | 0.21 | 0.63 | 0.31 | 0.63 | 0.63 | 0.42 | 1.4 | 2.5 | 2.5 | 0.4 | 0.63 | 0.63 | 4.8 | 10 | 0.63 | 2.6 | 5 | Activity (Vero): Non-toxic; MFC (Aspergillus fumigatus): 10 µg/mL; IC50 (Cryptococcus neoformans): 0.56 µg/mL; MFC (Cryptococcus neoformans): 1.3 µg/mL; MFC (Candida albicans): 5 µg/mL
Fc1ccccc1CSc1cc2ccccc2[n+](CCCCCC2CCCCC2)c1.[I-] | 16 | 20 | 20 | 0.74 | 2.5 | 1.3 | 2.5 | 1.3 | 0.73 | 6.3 | 20 | 20 | 1.4 | 2.5 | 2.5 | 6.5 | 20 | 1.3 | 2.7 | 5 | Activity (Vero): Non-toxic; MFC (Aspergillus fumigatus): 20 µg/mL; IC50 (Cryptococcus neoformans): 0.63 µg/mL; MFC (Cryptococcus neoformans): 1.3 µg/mL; MFC (Candida albicans): 5 µg/mL
Clc1ccccc1CSc1cc2ccccc2[n+](CCCCCC2CCCCC2)c1.[I-] | 13 | 20 | 20 | 0.74 | 5 | 1.3 | 5 | 1.3 | 0.77 | 6 | 10 | 10 | 0.34 | 2.5 | 2.5 | 17 | 20 | 2.5 | 5.6 | 10 | Activity (Vero): Non-toxic; MFC (Aspergillus fumigatus): 20 µg/mL; IC50 (Cryptococcus neoformans): 1.5 µg/mL; MFC (Cryptococcus neoformans): 5 µg/mL; MFC (Candida albicans): 20 µg/mL
Clc1cc(Cl)cc(CSc2cc3ccccc3[n+](CCCCCC3CCCCC3)c2)c1.[I-] | 3.1 | 5 | 5 | 1.3 | 10 | 2.5 |  |  |  | > 20 | > 20 | > 20 | 17 | > 20 | > 20 | > 20 | > 20 | 1.3 | 2.8 | 5 | IC50 (Staphylococcus aureus [3]): Not Active; MBC (Staphylococcus aureus [3]): inactive; MIC (Staphylococcus aureus [3]): inactive; Activity (Vero): Non-toxic; MFC (Aspergillus fumigatus): > 20 µg/mL; IC50 (Cryptococcus neoformans): 0.63 µg/mL; MFC (Cryptococcus neoformans): 1.3 µg/mL; MFC (Candida albicans): 5 µg/mL
O=C(O)c1cn(C2CC2)c2cc(N3CCNCC3)c(F)cc2c1=O [CIPROFLOXACIN] | 0.005 (≈ 0.0151 µM) |  | 0.45 (≈ 1.36 µM) |  |  | 0.5 (≈ 1.51 µM) |  | 0.5 (≈ 1.51 µM) |  |  |  |  |  |  |  |  |  |  |  |  | 
N#Cc1ccccc1CSc1cc2ccccc2[n+](CCCCCC2CCCCC2)c1.[I-] | 6.8 | 10 | 10 | 0.97 | 10 | 2.5 | 5 | 1.3 | 0.68 | > 20 | > 20 | > 20 | 1.5 | 5 | 5 | 11 | 20 | 1.3 | 1.6 | 5 | Activity (Vero): Non-toxic; MFC (Aspergillus fumigatus): 20 µg/mL; IC50 (Cryptococcus neoformans): 0.5 µg/mL; MFC (Cryptococcus neoformans): 2.5 µg/mL; MFC (Candida albicans): 10 µg/mL
COc1cccc(CSc2cc3ccccc3[n+](CCCCCC3CCCCC3)c2)c1.[I-] | 3.7 | 5 | 5 | 0.33 | 1.3 | 0.63 | 1.3 | 0.63 | 0.28 | 9.7 | 20 | 20 | 0.88 | 2.5 | 2.5 | 10.9 | 20 | 0.63 | 4.8 | 10 | Activity (Vero): Non-toxic; MFC (Aspergillus fumigatus): > 20 µg/mL; IC50 (Cryptococcus neoformans): 0.35 µg/mL; MFC (Cryptococcus neoformans): 2.5 µg/mL; MFC (Candida albicans): 10 µg/mL
[I-].c1ccc2c(c1)cc(SC1CCCCC1)c[n+]2CCCCCC1CCCCC1 | 8.4 | 10 | 10 | 1.2 | 10 | 2.5 | 10 | 1.3 | 0.74 | 15 | > 20 | > 20 | 0.35 | 2.5 | 2.5 | > 20 | > 20 | 2.5 | > 20 | > 20 | MFC (Aspergillus fumigatus): > 20 µg/mL; IC50 (Cryptococcus neoformans): 1.2 µg/mL; MFC (Cryptococcus neoformans): 2.5 µg/mL; MFC (Candida albicans): > 20 µg/mL
[I-].c1ccc(CCSc2cc3ccccc3[n+](CCCCCC3CCCCC3)c2)cc1 | 12 |  | 20 | 1.2 | 10 | 2.5 | 10 | 1.3 | 0.73 | 9.5 | > 20 | 20 | 0.69 | 5 | 5 | 19 | > 20 | 1.3 | 3.6 | > 20 | MFC (Aspergillus fumigatus): > 20 µg/mL; IC50 (Cryptococcus neoformans): 0.73 µg/mL; MFC (Cryptococcus neoformans): 1.3 µg/mL; MFC (Candida albicans): > 20 µg/mL
